pIC50: −log10 of the molar value.
How the values were obtained:
[1] = reference standard value; cited from earlier work
[2] = tested on: HEp2 cells; test: Phototoxicity, Cell Titer Blue assay; format: cell-based, human; conditions: 24 h
[3] = tested on: HEp2 cells; test: Time-dependent cellular uptake; format: cell-based, human; conditions: 10 μM; for cellular accumulation compared with MPIX 3: all time points over 24 h
[4] = target: EGFR extracellular domain (Homo sapiens, UniProt P00533); test: SPR binding to immobilized EGFR; conditions: SPR sensorgram, 400 to 500 s, 100 μM
Chain of EGFR extracellular domain (P00533 25-645 limits assumed): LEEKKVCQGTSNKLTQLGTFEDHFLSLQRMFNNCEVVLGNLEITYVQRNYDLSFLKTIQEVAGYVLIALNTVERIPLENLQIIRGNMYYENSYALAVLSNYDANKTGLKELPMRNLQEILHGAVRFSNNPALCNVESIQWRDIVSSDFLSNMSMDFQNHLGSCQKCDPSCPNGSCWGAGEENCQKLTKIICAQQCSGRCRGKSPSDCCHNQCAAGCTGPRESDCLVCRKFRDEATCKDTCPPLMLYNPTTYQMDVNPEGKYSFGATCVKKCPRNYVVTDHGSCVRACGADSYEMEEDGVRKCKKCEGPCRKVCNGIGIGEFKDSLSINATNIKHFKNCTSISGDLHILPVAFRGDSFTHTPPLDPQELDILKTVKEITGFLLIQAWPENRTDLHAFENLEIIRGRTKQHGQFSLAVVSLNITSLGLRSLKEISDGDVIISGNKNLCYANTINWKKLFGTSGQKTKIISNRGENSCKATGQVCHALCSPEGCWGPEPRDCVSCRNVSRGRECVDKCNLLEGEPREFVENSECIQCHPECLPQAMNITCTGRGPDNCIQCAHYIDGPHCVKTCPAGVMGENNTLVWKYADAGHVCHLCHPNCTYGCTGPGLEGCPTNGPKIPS

[5] = Fluorescence quantum yield in DMF; format: physicochemical; conditions: room temperature, calculated using porphyrin 3 as standard (0.102)

| Compound | cellular accumulation compared with MPIX 3 [3] | Φf (fluorescence quantum yield) [5] | also measured |
| --- | --- | --- | --- |
| CCC1=C(C)c2cc3[nH]c(cc4[nH]c(cc5nc(cc1n2)C(C)=C5CC)c(C)c4CCC(=O)O)c(CCC(=O)O)c3C [Compound 3, mesoporphyrin IX] |  |  | ΦF (fluorescence quantum yield) [1]: 0.102 |
| CCC1=C(C)c2cc3[nH]c(cc4nc(cc5[nH]c(cc1n2)c(C)c5CCC(=O)N[C@@H](CC(C)C)C(=O)N[C@@H](C)C(=O)N[C@@H](CCCNC(=N)N)C(=O)N[C@@H](CC(C)C)C(=O)N[C@@H](CC(C)C)C(=O)N[C@H](C(N)=O)[C@@H](C)O)C(CCC(=O)N[C@@H](CC(C)C)C(=O)N[C@@H](C)C(=O)N[C@@H](CCCNC(=N)N)C(=O)N[C@@H](CC(C)C)C(=O)N[C@@H](CC(C)C)C(=O)N[C@H](C(N)=O)[C@@H](C)O)=C4C)c(C)c3CC [Compound 4] | much larger extent than MPIX 3 |  | pIC50 [2]: 4.30; cellular accumulation ranking at early times ([3]; times < 4 h): accumulated the most |
| CCC1=C(C)c2cc3[nH]c(cc4nc(cc5[nH]c(cc1n2)c(C)c5CCC(=O)NCC(=O)N[C@@H](Cc1ccc(O)cc1)C(=O)N[C@@H](Cc1c[nH]cn1)C(=O)N[C@@H](Cc1c[nH]c2ccccc12)C(=O)N[C@@H](Cc1ccc(O)cc1)C(=O)NCC(=O)N[C@@H](Cc1ccc(O)cc1)C(=O)N[C@H](C(=O)N1CCC[C@H]1C(=O)N[C@@H](CCC(N)=O)C(=O)N[C@@H](CC(N)=O)C(=O)N[C@H](C(=O)N[C@H](C(N)=O)[C@@H](C)CC)C(C)C)[C@@H](C)O)C(CCC(=O)O)=C4C)c(C)c3CC [Compound 5] | much larger extent than MPIX 3 | 0.124 | dissociation rate from EGFR [4]: slower dissociation rates |
| GYHWYGYTPQNVI [Compound 8] | much larger extent than MPIX 3 | 0.132 | cellular uptake relative to MPIX 3 ([3]; after 24 h): about 8 fold |
| LARLLT [Compound 7] | accumulated significantly less | 0.124 |  |

Reference: paper PMC5058426 (Journal of porphyrins and phthalocyanines, 2016)
